Experimental data reported in ChEMBL document CHEMBL1201862, “PubChem BioAssay data set” (2004).
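In this assay, cells in 96-well plates receive the compound at five concentrations for 48 hours. Endpoints are linearly interpolated between the surrounding concentrations. Abbreviation: GI50, concentration required for 50% inhibition of growth.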 Active and inactive are the calls of the source. Cut-off read from the data, not from the text of the source: active = GI50 up to about 1.1 µM and inactive = higher.

Tests used:
Test in all cases: DTP human tumour cell line panel, 48 h
TK-10 = tested on: TK-10
NCI-H226 = tested on: NCI-H226
M14 = tested on: M14
HCT-116 = tested on: HCT-116
COLO 205 = tested on: COLO 205
U-251 = tested on: U-251
T47D = tested on: T47D
UO-31 = tested on: UO-31
SF-295 = tested on: SF-295
OVCAR-3 = tested on: OVCAR-3
EKVX = tested on: EKVX
UACC-257 = tested on: UACC-257
MDA-N = tested on: MDA-N
UACC-62 = tested on: UACC-62
HT-29 = tested on: HT-29
A549 = tested on: A549
SF-268 = tested on: SF-268
SF-539 = tested on: SF-539

Measured: GI50

O=[N+]([O-])c1ccc(C2c3c(O)nc(S)nc3Oc3nc(S)nc(O)c32)cc1
inactive: TK-10 > 100 µM | NCI-H226 > 100 µM | M14 > 100 µM | HCT-116 > 100 µM | COLO 205 > 100 µM | U-251 > 100 µM | T47D > 100 µM | UO-31 > 100 µM | SF-295 > 100 µM | OVCAR-3 > 100 µM | EKVX > 100 µM | UACC-257 > 100 µM | MDA-N > 100 µM | UACC-62 > 100 µM | HT-29 > 100 µM | A549 > 100 µM

COc1cc2c(cc1O)C(=O)O[C@@H]1CC=C3CCN(C)[C@H]3[C@H]21
inactive: TK-10 > 25 µM | NCI-H226 > 25 µM | M14 > 25 µM | HCT-116 > 25 µM | U-251 > 25 µM | T47D > 25 µM | UO-31 > 25 µM | SF-295 > 25 µM | SF-268 > 25 µM | OVCAR-3 > 25 µM | EKVX > 25 µM | UACC-257 > 25 µM | MDA-N > 25 µM | UACC-62 > 25 µM | HT-29 > 25 µM | A549 > 25 µM

COC(=O)/C=C(C)/C=C\COC1CCCCO1 (configuration not stated)
inactive: TK-10 > 100 µM | NCI-H226 > 100 µM | M14 > 100 µM | HCT-116 > 100 µM | COLO 205 > 100 µM | U-251 > 100 µM | T47D > 100 µM | UO-31 > 100 µM | SF-295 > 100 µM | SF-268 > 100 µM | OVCAR-3 > 100 µM | EKVX > 100 µM | UACC-257 > 100 µM | MDA-N > 100 µM | UACC-62 > 100 µM | A549 > 100 µM

Nc1c(-c2ccccc2)c2ccc([N+](=O)[O-])cc2c(=O)n1-c1cccc(C(=O)O)c1
inactive: TK-10 > 100 µM | NCI-H226 > 100 µM | M14 > 100 µM | HCT-116 > 100 µM | U-251 > 100 µM | T47D > 100 µM | SF-539 > 100 µM | UO-31 > 100 µM | SF-295 > 100 µM | SF-268 > 100 µM | OVCAR-3 > 100 µM | EKVX > 100 µM | UACC-257 > 100 µM | MDA-N > 100 µM | UACC-62 > 100 µM | HT-29 > 100 µM | A549 > 100 µM

O=c1[nH]nc(Cc2ccccc2)n1CCCl
inactive: NCI-H226 > 100 µM | M14 > 100 µM | HCT-116 > 100 µM | COLO 205 > 100 µM | U-251 > 100 µM | T47D > 100 µM | SF-539 > 100 µM | UO-31 > 100 µM | SF-295 > 100 µM | SF-268 > 100 µM | OVCAR-3 > 100 µM | EKVX > 100 µM | MDA-N > 100 µM | UACC-62 > 100 µM | HT-29 > 100 µM

CC(C)=CC1C(COC(=O)c2cc3c(cc2Cl)OCO3)C1(C)C (configuration not stated)
inactive: TK-10 > 100 µM | NCI-H226 42.4 µM | M14 38.7 µM | HCT-116 33.4 µM | U-251 26.8 µM | T47D 39.1 µM | UO-31 54.2 µM | SF-295 34.4 µM | SF-268 19.3 µM | OVCAR-3 25.2 µM | EKVX 30.4 µM | UACC-257 40.3 µM | MDA-N 29.5 µM | UACC-62 36.1 µM | HT-29 33 µM | A549 34.2 µM

O=[N+]([O-])/C(C(Cl)=C(Cl)Cl)=C1\Nc2ccc([N+](=O)[O-])cc2N1
inactive: TK-10 > 100 µM | NCI-H226 > 100 µM | M14 > 100 µM | HCT-116 46.5 µM | COLO 205 > 100 µM | U-251 60 µM | T47D > 100 µM | UO-31 14.1 µM | SF-295 > 100 µM | SF-268 61.8 µM | OVCAR-3 > 100 µM | EKVX > 100 µM | UACC-257 > 100 µM | MDA-N 75.3 µM | UACC-62 > 100 µM | A549 > 100 µM

CCNc1ncnc2nn[nH]c12
inactive: TK-10 > 100 µM | NCI-H226 > 100 µM | M14 > 100 µM | HCT-116 > 100 µM | COLO 205 > 100 µM | U-251 > 100 µM | T47D > 100 µM | SF-539 > 100 µM | UO-31 > 100 µM | SF-295 > 100 µM | OVCAR-3 > 100 µM | EKVX > 100 µM | UACC-257 > 100 µM | MDA-N > 100 µM | UACC-62 > 100 µM | HT-29 > 100 µM | A549 > 100 µM

c1ccc(-c2nc3ccccc3n3c(CN4CCCCC4)nnc23)cc1
inactive: TK-10 35.2 µM | NCI-H226 > 100 µM | M14 > 100 µM | HCT-116 > 100 µM | COLO 205 > 100 µM | U-251 47 µM | T47D 54.5 µM | SF-539 51.3 µM | SF-295 49.4 µM | SF-268 49.5 µM | OVCAR-3 > 100 µM | EKVX 93.5 µM | UACC-257 > 100 µM | MDA-N > 100 µM | UACC-62 > 100 µM | HT-29 > 100 µM | A549 > 100 µM

COC(=O)C12CCCN1CCC2
inactive: TK-10 > 100 µM | NCI-H226 > 100 µM | M14 > 100 µM | HCT-116 > 100 µM | COLO 205 > 100 µM | U-251 > 100 µM | T47D > 100 µM | UO-31 > 100 µM | SF-295 > 100 µM | SF-268 > 100 µM | OVCAR-3 > 100 µM | EKVX > 100 µM | UACC-257 > 100 µM | MDA-N > 100 µM | UACC-62 > 100 µM | HT-29 > 100 µM | A549 > 100 µM

N#CC1CNC(N)NC1N (configuration not stated)
inactive: TK-10 > 100 µM | NCI-H226 > 100 µM | M14 > 100 µM | HCT-116 > 100 µM | COLO 205 > 100 µM | U-251 > 100 µM | T47D > 100 µM | SF-539 > 100 µM | SF-295 > 100 µM | SF-268 > 100 µM | OVCAR-3 > 100 µM | EKVX > 100 µM | UACC-257 > 100 µM | MDA-N > 100 µM | UACC-62 > 100 µM | HT-29 > 100 µM | A549 > 100 µM

c1ccc2c(Cc3c[nH]c4ccccc34)c[nH]c2c1 [ARUNDINE]
inactive: TK-10 19.4 µM | NCI-H226 2.14 µM | M14 16.6 µM | HCT-116 17.1 µM | COLO 205 13.6 µM | U-251 17.7 µM | T47D 15.8 µM | UO-31 14.1 µM | SF-295 19.9 µM | SF-268 28.1 µM | OVCAR-3 15.7 µM | EKVX 14.4 µM | UACC-257 18.5 µM | MDA-N 19.2 µM | UACC-62 > 100 µM | HT-29 15.2 µM | A549 20.8 µM
